# Reference: the OligoGym collection
# Bases are written 5' to 3'; sugars and linkages follow in the same order, as letters with counts (s phosphorothioate, o phosphodiester; PS: all linkages phosphorothioate). The collection does not say whether C is 5-methylated. l = locked nucleic acid (LNA); d = 2'-deoxy (DNA)
# Biological target: Tau
# Assay: rat primary cortical neurons, FLIPR, 25 uM ASO
row,Sequence,calcium oscillation score
1,"CCTGTCTCAAACACCTA (sugars l2 d12 l3, PS)",60.6 % of control
2,"GTCCAGGGACCCAATCTTCG (sugars l3 d14 l3, PS)",0 % of control
3,"CTCAAACTTAAATTTATTTT (sugars l4 d12 l4, PS)",90.7 % of control
4,"CACTTTCCTAATTCCCAAA (sugars l3 d14 l2, PS)",68 % of control
5,"CCTTAAAGCTCCAACA (sugars l4 d10 l2, PS)",94.6 % of control
6,"GCAATAGCAAACAGG (sugars l3 d9 l3, PS)",40.8 % of control
7,"GAAATCCCTCTACTCCA (sugars l3 d12 l2, PS)",73.7 % of control
8,"TTTGTCATCGCTTCCA (sugars l3 d10 l3, PS)",20.7 % of control
9,"TTCATCACCAAGTCCC (sugars l3 d11 l2, PS)",51.4 % of control
10,"CCACCCATCAATTTGGAAAG (sugars l3 d14 l3, PS)",58.1 % of control
11,"GGGAGATTCTTTCAGGCCAG (sugars l3 d14 l3, PS)",48.1 % of control
12,"AATTAACATATTTTTACCT (sugars l4 d11 l4, PS)",75.1 % of control
13,"GGTTTATGATGGATGTTGCC (sugars l3 d14 l3, PS)",26.6 % of control
14,"TCCCAGCGTGATCTTCCATC (sugars lldllddddddddddlldll, PS)",106 % of control
15,"CTTTGAGTTGAGGGAC (sugars l3 d10 l3, PS)",29.1 % of control
16,"ATCTTCGACTGGACTC (sugars l3 d10 l3, PS)",59.7 % of control
17,"CACCATCCAAGTCAATGCCT (sugars l3 d14 l3, PS)",24.2 % of control
18,"TTAATTATCTGCACCTT (sugars l3 d10 l4, PS)",33.9 % of control
19,"TCGCGGAAGGTCAGCTTGTG (sugars l3 d14 l3, PS)",20.3 % of control
20,"TATTGTCCAGGGACCC (sugars l3 d10 l3, PS)",29.9 % of control
21,"GTCAATTTAAATGGA (sugars l3 d9 l3, PS)",66.7 % of control
22,"CTTTATTTCCAAATTCACT (sugars l5 d9 l1 d1 l3, PS)",110 % of control
23,"TTATTTCCAAATTCACTTTT (sugars llddlldddddddddlldll, PS)",88.8 % of control
24,"ACTCATCAACACCTTTTAAT (sugars l2 d14 l4, PS)",63 % of control
25,"AAGTGATTAACCAATTAACC (sugars l3 d14 l3, PS)",57 % of control
26,"CTTGTGATGCAGGA (sugars l3 d8 l3, PS)",70.5 % of control

row,Sequence,calcium oscillation score
1,"AACTGGTTTGTAGACT (sugars l3 d10 l3, PS)",0 % of control
2,"TCATGAGCACTAACTCTAAG (sugars l3 d14 l3, PS)",35.7 % of control
3,"CTAGCCCACCCATCAATTTG (sugars l3 d14 l3, PS)",0 % of control
4,"AGGTCACCTTGCTCAG (sugars l3 d10 l3, PS)",52.8 % of control
5,"CAGGAGTTGTAAGC (sugars l3 d8 l3, PS)",77.5 % of control
6,"TCTTTGCTTTTACTGACCAT (sugars l3 d14 l3, PS)",29.6 % of control
7,"ACTTGGGTGGAGTACGGACC (sugars l3 d14 l3, PS)",0 % of control
8,"CTTGGCTTTTTTGTCATCGC (sugars l3 d14 l3, PS)",23.3 % of control
9,"AATTTCAGAGCAAAGTGACC (sugars l3 d14 l3, PS)",2.38 % of control
10,"CCTCTTCCACTACAAG (sugars l2 d12 l2, PS)",57.8 % of control
11,"TAGACTATTTGCACACTGCC (sugars l3 d14 l3, PS)",51.9 % of control
12,"CAGCTCTTCCATAAGCAGGG (sugars l3 d14 l3, PS)",60.6 % of control
13,"CTTTTCTACTCTACTCTCAA (sugars l4 d14 l2, PS)",67.6 % of control
14,"GGTCTGAGCTACCAGG (sugars l3 d10 l3, PS)",14.8 % of control
15,"ACTCATTTACCAATTATCTT (sugars l2 d14 l4, PS)",60.6 % of control
16,"TACCCCATTTTTGACA (sugars l3 d11 l2, PS)",60.9 % of control
17,"CCCAAGAGGCACAAGT (sugars l3 d10 l3, PS)",89.5 % of control
18,"TGGATGTTGCCTAATG (sugars l3 d10 l3, PS)",0 % of control
19,"ATGAGCCACACTTGGAGGTC (sugars l3 d14 l3, PS)",19.9 % of control
20,"ACTTTATTTCCAAATTCACTTTTAC (sugars ldllldddddddddddddddllddl, PS)",17.7 % of control
21,"TTCTCTCTTAACTTTATTTT (sugars l4 d12 l4, PS)",93 % of control
22,"CTTAGTCATCTTCCCTCA (sugars l2 d14 l2, PS)",93.8 % of control
23,"GGTTTGTAGACTATT (sugars l3 d9 l3, PS)",0 % of control
24,"GCAAACCACTCTTATT (sugars l4 d10 l2, PS)",95.4 % of control
25,"TCTTTATTAACACTCCA (sugars l4 d10 l3, PS)",72.6 % of control
26,"GCACCCTCCAAATCACCA (sugars l1 d15 l2, PS)",50.6 % of control

row,Sequence,calcium oscillation score
1,"GAGAGACCACATTATCATCC (sugars l3 d14 l3, PS)",96.7 % of control
2,"GAACAGGAGAGCCATTTCCC (sugars l3 d14 l3, PS)",7.14 % of control
3,"ATATTTAGTTTTCCCAC (sugars l2 d11 l4, PS)",42.4 % of control
4,"TCTCTCTAGACATCTCA (sugars l2 d12 l3, PS)",68.4 % of control
5,"AATTCATTTAATTCTCTTCT (sugars l4 d12 l4, PS)",86.6 % of control
6,"ACATCTCTCTAGACATC (sugars l4 d10 l3, PS)",68.4 % of control
7,"CTTCTCAGCCACTGTT (sugars l3 d10 l3, PS)",67.9 % of control
8,"GGTTAAGTGATTAACCAATT (sugars l3 d14 l3, PS)",157 % of control
9,"CCCCAGACCATCAATT (sugars l2 d12 l2, PS)",57.7 % of control
10,"TCTACCATGTCGATGC (sugars l3 d10 l3, PS)",51.8 % of control
11,"TTTCTCAATGTAACCTC (sugars l3 d10 l4, PS)",71.6 % of control
12,"CAGCATTTCCATTTCATC (sugars l2 d13 l3, PS)",52.7 % of control
13,"CTAATATCCTTGCTATC (sugars l3 d10 l4, PS)",55.7 % of control
14,"CCCATTCAGATCTATCC (sugars l2 d13 l2, PS)",102 % of control
15,"TACTATCCACTTGTTA (sugars l3 d11 l2, PS)",61.9 % of control
16,"CTCAGCTAAGACCCTCAGGT (sugars l3 d14 l3, PS)",31.2 % of control
17,"TTTAATTCACACAACAAACT (sugars l4 d12 l4, PS)",89.1 % of control
18,"GCTCAGCTAAGACCCTCAGG (sugars l3 d14 l3, PS)",29.4 % of control
19,"GTCCAAACTTTTACTCT (sugars l4 d11 l2, PS)",75.7 % of control
20,"AGCCACTGTTGCCACA (sugars l2 d12 l2, PS)",39.3 % of control
21,"ACCTTGCTCAGGTCAACTGG (sugars l3 d14 l3, PS)",2.59 % of control
22,"TACATGCGTCCTTT (sugars l3 d8 l3, PS)",91.8 % of control
23,"CTACTTTATTCCCTTAACAA (sugars l2 d15 l3, PS)",86.8 % of control
24,"CACAAACCAACTCAACATTA (sugars l4 d13 l3, PS)",82.7 % of control
25,"TCTCGCGGAAGGTC (sugars l3 d8 l3, PS)",75.7 % of control
